One assay has as its target T1, human capsaicin receptor (Homo sapiens, UniProt Q8NER1).
T1 construct: transfected with the pBK-CMV expression construct encoding the full length human capsaicin receptor; expressed in transfected cells; host or cells: HEK293, stably transfected clonal lines, plasmid pBK-CMV
In words: Calcium mobilization assay, capsaicin agonist response (Example 6). In kind it is cell-based. The settings on record: capsaicin positive control, cells expressing human capsaicin receptor; read-out: approximate EC90 concentration. Here is the method: Cells transfected with expression plasmids (as described in Example 4) and thereby expressing human capsaicin receptor are seeded and grown to 70-90% confluency in FALCON black-walled, clear-bottomed 96-well plates (#3904, BECTON-DICKINSON, Franklin Lakes, N.J.). The culture medium is emptied from the 96 well plates and FLUO-3 AM calcium sensitive dye (Molecular Probes, Eugene, Oreg.) is added to each well (dye solution: 1 mg FLUO-3 AM, 440 μL DMSO and 440 μl 20% pluronic acid in DMSO, diluted 1:250 in Krebs-Ringer HEPES (KRH) buffer (25 mM HEPES, 5 mM KCl, 0.96 mM NaH2PO4, 1 mM MgSO4, 2 mM CaCl2, 5 mM glucose, 1 mM probenecid, pH 7.4), 50 μl diluted solution per well). […]
To measure the ability of a test compound to agonize or antagonize a calcium mobilization response in cells expressing capsaicin receptors to capsaicin or other vanilloid agonist, the EC50 of the agonist capsaicin is first determined. […] Capsaicin-induced calcium mobilization is monitored using either FLUOROSKAN ASCENT (Labsystems; Franklin, Mass.) or FLIPR (fluorometric imaging plate reader system; Molecular Devices, Sunnyvale, Calif.) instruments. […] In this equation, y is the maximum fluorescence signal, x is the concentration of the agonist or antagonist (in this case, capsaicin), a is the Emax, b corresponds to the EC50 value and c is the Hill coefficient. […]
T1 sequence (Q8NER1 whole entry): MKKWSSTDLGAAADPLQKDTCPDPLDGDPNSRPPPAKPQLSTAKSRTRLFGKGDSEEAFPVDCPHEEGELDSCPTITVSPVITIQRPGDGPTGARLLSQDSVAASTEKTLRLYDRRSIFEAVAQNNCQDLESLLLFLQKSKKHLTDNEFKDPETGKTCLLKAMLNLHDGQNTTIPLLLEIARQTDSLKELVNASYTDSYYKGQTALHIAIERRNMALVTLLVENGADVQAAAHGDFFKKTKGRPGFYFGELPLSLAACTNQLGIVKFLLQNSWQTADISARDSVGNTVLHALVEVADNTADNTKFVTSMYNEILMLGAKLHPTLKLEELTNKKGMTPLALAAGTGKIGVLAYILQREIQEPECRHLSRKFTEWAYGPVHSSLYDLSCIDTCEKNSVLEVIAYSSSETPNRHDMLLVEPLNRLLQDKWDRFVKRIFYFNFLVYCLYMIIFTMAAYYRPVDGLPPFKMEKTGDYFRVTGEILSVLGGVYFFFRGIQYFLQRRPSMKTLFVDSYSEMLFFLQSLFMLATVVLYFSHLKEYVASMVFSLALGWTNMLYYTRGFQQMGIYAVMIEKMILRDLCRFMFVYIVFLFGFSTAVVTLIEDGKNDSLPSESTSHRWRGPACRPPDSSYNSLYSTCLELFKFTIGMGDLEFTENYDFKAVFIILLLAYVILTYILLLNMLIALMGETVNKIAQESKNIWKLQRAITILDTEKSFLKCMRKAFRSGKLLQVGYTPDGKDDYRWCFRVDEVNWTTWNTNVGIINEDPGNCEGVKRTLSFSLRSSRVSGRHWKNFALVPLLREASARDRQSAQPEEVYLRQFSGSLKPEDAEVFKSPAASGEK
On to `COc1cc(CNC(=O)CCCC/C=C/C(C)C)ccc1O` [capsaicin], for which the EC90 is roughly 100 nM.

The target in a further assay is T1, human capsaicin receptor. In words: Calcium mobilization assay, determination of antagonist activity (Example 6). Type of assay: cell-based. The following applies: concentration giving 50% decrease in the fluorescence response of cells expressing human capsaicin receptor exposed to capsaicin. Here is the method:
A cDNA encoding full length human capsaicin receptor (SEQ ID NO:1, 2 or 3 of U.S. Pat. No. 6,482,611) was subcloned in the plasmid pBK-CMV (Stratagene, La Jolla, Calif.) for recombinant expression in mammalian cells.
Human embryonic kidney (HEK293) cells were transfected with the pBK-CMV expression construct encoding the full length human capsaicin receptor using standard methods. The transfected cells were selected for two weeks in media containing G418 (400 μg/ml) to obtain a pool of stably transfected cells. Independent clones were isolated from this pool by limiting dilution to obtain clonal stable cell lines for use in subsequent experiments.
Cells transfected with expression plasmids (as described in Example 4) and thereby expressing human capsaicin receptor are seeded and grown to 70-90% confluency in FALCON black-walled, clear-bottomed 96-well plates (#3904, BECTON-DICKINSON, Franklin Lakes, N.J.). The culture medium is emptied from the 96 well plates and FLUO-3 AM calcium sensitive dye (Molecular Probes, Eugene, Oreg.) is added to each well (dye solution: 1 mg FLUO-3 AM, 440 μL DMSO and 440 μl 20% pluronic acid in DMSO, diluted 1:250 in Krebs-Ringer HEPES (KRH) buffer (25 mM HEPES, 5 mM KCl, 0.96 mM NaH2PO4, 1 mM MgSO4, 2 mM CaCl2, 5 mM glucose, 1 mM probenecid, pH 7.4), 50 μl diluted solution per well). Plates are covered with aluminum foil and incubated at 37° C. for 1-2 hours in an environment containing 5% CO2. After the incubation, the dye is emptied from the plates, and the cells are washed once with KRH buffer, and resuspended in KRH buffer.
To measure the ability of a test compound to agonize or antagonize a calcium mobilization response in cells expressing capsaicin receptors to capsaicin or other vanilloid agonist, the EC50 of the agonist capsaicin is first determined. An additional 20 μl of KRH buffer and 1 μl DMSO is added to each well of cells, prepared as described above. 100 μl capsaicin in KRH buffer is automatically transferred by the FLIPR instrument to each well. Capsaicin-induced calcium mobilization is monitored using either FLUOROSKAN ASCENT (Labsystems; Franklin, Mass.) or FLIPR (fluorometric imaging plate reader system; Molecular Devices, Sunnyvale, Calif.) instruments. Data obtained between 30 and 60 seconds after agonist application are used to generate an 8-point concentration response curve, with final capsaicin concentrations of 1 nM to 3 μM. […] software (Synergy Software, Reading, Pa.) is used to fit the data to the equation: y=a*(1/(1+(b/x)^c)) to determine the 50% excitatory concentration (EC50) for the response. In this equation, y is the maximum fluorescence signal, x is the concentration of the agonist or antagonist (in this case, capsaicin), a is the Emax, b corresponds to the EC50 value and c is the Hill coefficient. Determination Agonist Activity
Test compounds are dissolved in DMSO, diluted in 20 μl KRH buffer so that the final concentration of test compounds in the assay well is between 1 μM and 5 μM, and added to cells prepared as described above. The 96 well plates containing prepared cells and test compounds are incubated in the dark, at room temperature for 0.5 to 6 hours. It is important that the incubation not continue beyond 6 hours. Just prior to determining the fluorescence response, 100 μl capsaicin in KRH buffer at twice the EC50 concentration determined as described above is automatically added by the FLIPR instrument to each well of the 96 well plate for a final sample volume of 200 μl and a final capsaicin concentration equal to the EC50. The final concentration of test compounds in the assay wells is between 1 μM and 5 μM.
On the technique in general: Calcium flux is commonly read through the fluorescence of an indicator in the cells.
In the case of `CC(C)(C)c1ccc(Nc2nc(N)nc(NCc3ccccc3Cl)n2)cc1` [Compound 37, N-(4-tert-Butyl-phenyl)-N′-(2-chloro-benzyl)-[1,3,5]triazine-2,4,6-triamine], the IC50 is no more than 1000 nM.

`FC(F)(F)c1ccc(Nc2nc(OCc3ccccc3C(F)(F)F)nc(OCc3ccccc3C(F)(F)F)n2)cc1` [Compound 15, [4,6-Bis-(2-trifluoromethyl-benzyloxy)-[1,3,5]triazin-2-yl]-(4-trifluoromethyl-phenyl)-amine]: the IC50 was no more than 1000 nM. Still for that read-out and setting: then `COc1cc2c(cc1OC)CN(c1nc(Cl)nc(Nc3ccc(C(C)(C)C)cc3)n1)C(C)C2` (stereo not drawn) [Compound 7, (4-tert-Butyl-phenyl)-[4-chloro-6-(6,7-dimethoxy-3-methyl-3,4-dihydro-1H-isoquinolin-2-yl)-[1,3,5]triazin-2-yl]-amine], with no more than 1000 nM. On to `COc1ccccc1CNc1nc(NCc2ccccc2OC)nc(Nc2ccc(C(C)(C)C)cc2)n1` [Compound 55, N-(4-tert-Butyl-phenyl)-N′,N″-bis-(2-methoxy-benzyl)-[1,3,5]triazine-2,4,6-triamine], for which the IC50 was no more than 1000 nM. Regarding `COc1ccccc1CNc1ncnc(Nc2ccc(C(C)(C)C)cc2)n1` [Compound 45, N-(4-tert-Butyl-phenyl)-N′-(2-methoxy-benzyl)-[1,3,5]triazine-2,4-diamine], the IC50 is no more than 1000 nM. Regarding `COc1ccccc1CNc1nc(Cl)nc(Nc2ccc(C(C)(C)C)cc2)n1` [Compound 35, N-(4-tert-Butyl-phenyl)-6-chloro-N′-(2-methoxy-benzyl)-[1,3,5]triazine-2,4-diamine], the IC50 is no more than 1000 nM. Regarding `CCOc1nc(NCc2ccccc2Cl)nc(Nc2ccc(C(C)(C)C)cc2)n1` [Compound 38, N-(4-tert-Butyl-phenyl)-N′-(2-chloro-benzyl)-6-ethoxy-[1,3,5]triazine-2,4-diamine], the IC50 is no more than 1000 nM. With `CC(C)(O)CCNc1nc(Nc2ccc(C(F)(F)F)cc2)nc(OCc2ccccc2C(F)(F)F)n1` [Compound 24, 2-Methyl-4-[4-(2-trifluoromethyl-benzyloxy)-6-(4-trifluoromethyl-phenylamino)-[1,3,5]triazin-2-ylamino]-butan-2-ol], the IC50 is no more than 1000 nM.

As a reminder, the IC50 is the midpoint of a concentration-inhibition curve.

Source of the values: patent US20070161637A1, “Substituted pyridin-2-ylamine analogues” (Neurogen Corporation, priority 2003, published 2007).
